Laboratory results as given in publication PMC9520749, “Novel angiotensin-converting enzyme and pancreatic lipase oligopeptide inhibitors from fermented rice bran” (Frontiers in Nutrition, 2022).
Read-outs that look alike come from different tables or passages of the source. Ends that are not written are not given here. Peptide text beside a SMILES is read from it.

Assays:
[1] = biological target: T1, pancreatic lipase (Sus scrofa, UniProt P00591); conditions: cited from earlier work
T1 construct: purchased Sigma Co., St. Louis, Missouri, United States
T1 sequence (P00591 1-450): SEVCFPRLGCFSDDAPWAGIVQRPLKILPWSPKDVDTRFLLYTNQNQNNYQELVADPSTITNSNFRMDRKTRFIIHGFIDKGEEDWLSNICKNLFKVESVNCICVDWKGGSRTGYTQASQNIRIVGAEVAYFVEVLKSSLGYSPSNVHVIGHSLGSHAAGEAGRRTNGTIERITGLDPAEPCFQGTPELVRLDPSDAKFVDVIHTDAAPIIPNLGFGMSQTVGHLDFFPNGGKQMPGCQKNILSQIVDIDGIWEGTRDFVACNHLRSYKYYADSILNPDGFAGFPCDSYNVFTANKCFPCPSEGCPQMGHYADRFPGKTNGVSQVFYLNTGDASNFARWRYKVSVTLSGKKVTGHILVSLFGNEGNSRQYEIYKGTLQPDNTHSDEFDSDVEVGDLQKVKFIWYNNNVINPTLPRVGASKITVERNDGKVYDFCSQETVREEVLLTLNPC

[2] = biological target: T2, ACE (Homo sapiens, UniProt P12821); test: ACE inhibitory activity of peptides (FAPGG substrate, absorbance 340 nm); assay type: biochemical
T2 construct: purchased Sigma Co., St. Louis, Missouri, United States
T2 sequence (P12821 30-1306): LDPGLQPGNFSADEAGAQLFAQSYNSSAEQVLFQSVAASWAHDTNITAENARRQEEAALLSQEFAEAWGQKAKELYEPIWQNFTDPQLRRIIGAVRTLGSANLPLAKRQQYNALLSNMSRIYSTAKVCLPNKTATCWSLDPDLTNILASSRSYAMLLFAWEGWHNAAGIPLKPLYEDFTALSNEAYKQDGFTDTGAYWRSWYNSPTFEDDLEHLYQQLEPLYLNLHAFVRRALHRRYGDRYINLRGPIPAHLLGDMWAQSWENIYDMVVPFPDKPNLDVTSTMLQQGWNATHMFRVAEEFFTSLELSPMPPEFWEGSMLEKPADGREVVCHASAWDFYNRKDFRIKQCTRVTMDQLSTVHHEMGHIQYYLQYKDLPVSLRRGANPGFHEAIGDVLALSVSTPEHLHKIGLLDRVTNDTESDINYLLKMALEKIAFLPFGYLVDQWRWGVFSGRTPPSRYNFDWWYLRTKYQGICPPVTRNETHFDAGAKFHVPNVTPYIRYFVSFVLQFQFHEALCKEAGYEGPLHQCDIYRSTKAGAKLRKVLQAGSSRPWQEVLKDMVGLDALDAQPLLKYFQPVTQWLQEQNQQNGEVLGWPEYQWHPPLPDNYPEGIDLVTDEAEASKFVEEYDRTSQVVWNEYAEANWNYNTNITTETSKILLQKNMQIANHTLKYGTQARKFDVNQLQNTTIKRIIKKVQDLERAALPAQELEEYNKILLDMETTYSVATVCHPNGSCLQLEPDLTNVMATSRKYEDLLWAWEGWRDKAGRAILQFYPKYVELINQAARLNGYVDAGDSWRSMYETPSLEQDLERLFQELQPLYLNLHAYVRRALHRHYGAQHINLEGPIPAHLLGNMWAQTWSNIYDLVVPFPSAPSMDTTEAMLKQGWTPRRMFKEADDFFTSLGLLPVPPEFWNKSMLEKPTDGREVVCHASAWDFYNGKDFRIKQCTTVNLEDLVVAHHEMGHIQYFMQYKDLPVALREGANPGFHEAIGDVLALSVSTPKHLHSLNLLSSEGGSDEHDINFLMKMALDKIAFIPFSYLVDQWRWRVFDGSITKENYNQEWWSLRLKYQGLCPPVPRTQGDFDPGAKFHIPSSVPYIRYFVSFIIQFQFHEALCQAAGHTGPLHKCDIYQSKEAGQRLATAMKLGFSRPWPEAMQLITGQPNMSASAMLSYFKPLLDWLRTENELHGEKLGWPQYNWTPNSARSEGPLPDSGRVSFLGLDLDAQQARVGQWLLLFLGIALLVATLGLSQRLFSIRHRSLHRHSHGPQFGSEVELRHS
Experimental: (§1) The polypeptide was synthesized by Hangzhou Dangang Biotechnology Co., Ltd (Hangzhou, China). Human ACE, N-[3-(2-furanyl) acryloyl]-l-phenylalanyl glycyl glycine (FAPGG), p-nitrophenyl butyrate (pNPB), and pancreatic lipase were purchased from Sigma Co., St. Louis, Missouri, United States.
(§2) According to the experimental method of Yu Fu et al. ([8]), with slight changes, 50 μL ACE (0.1 U/mL, prepared from borate buffer with pH 8.3 and 80 mM), 50 μL FAPGG (1 mM), and 100 μL borate buffer (80 mM, pH 8.3) were added to a 96-well plate. Then, 100 μL borate buffer was replaced with 1 mg/mL sample, which are three groups of parallel samples, and the initial absorbance values a1 and b1 were measured at 340 nm. Then, the plate was placed at 37°C and reacted for 30 min. The absorbance values a2 and b2 were measured at 340 nm (Multiskan GO, Thermo Scientific, Waltham, MA, USA). The absorbance value was incorporated into the following formula to calculate the inhibition rate of polypeptide against ACE activity:
(1) ACEinhibitionrate (%)=(A-B)/A×100
Where a1 and b1 are initial absorbance values of the blank and sample groups, respectively. a2 and b2 are absorbance values of the blank and sample groups after the reaction, respectively. A = a1–a2; B = b1–b2.

[3] = biological target: T2, ACE; test: Inhibitory kinetic analysis of ACE (Lineweaver-Burk); assay type: biochemical; conditions: sample 1 mg/mL, FAPGG 0.2-1 mM; read-out: inhibitory binding constant (Ki), ACE
Experimental: (§3) The inhibition kinetics of oligopeptides GLLGY, HWP, and VYGF on ACE and pancreatic lipase were tested to determine their efficiencies. For the ACE inhibition test, the concentration of the samples GLLGY, HWP, and VYGF was 1 mg/mL, and the concentrations of the substrate FAPGG were 0.2, 0.4, 0.6, 0.8, and 1 mM. For the pancreatic lipase inhibition test, the sample HWP concentration was 1 mg/mL and the substrate pNPB concentrations were 1, 2, 3, and 5 mM. The initial velocity data were used to construct the Lineweaver–Burke plots to determine the enzyme Km (Michaelis constant), Vmax (maximum velocity), and Ki (inhibitory binding constant) ([8], [22]).

[4] = biological target: T2, ACE; test: In vitro simulated gastrointestinal digestion, then ACE inhibition; assay type: biochemical; conditions: 1 mg/mL, read-out: inhibition rate against ACE
Experimental: as §2
(§4) Simulated GI digestion through an in vitro pepsin–pancreatin hydrolysis method was carried out ([23]). The oligopeptides GLLGY, HWP, and VYGF were re-dissolved (3% w/v in distilled water) and adjusted to pH 2.0 with 1 M HCl. Then, pepsin (4% weight as received/weight of protein in the powder) was added. The mixture was incubated at 37°C for 2 h. The pH was then adjusted to 5.3 with 0.9 M NaHCO3 solution and further to pH 7.5 with 1 M NaOH. Pancreatin was added (4% weight as received/weight of protein in the powder), and the mixture was further incubated at 37°C for 2 h. To terminate the digestion, the test tubes were kept in boiling water for 10 min. The gastric digests (GDs) and gastric-intestinal digests (GIDs) were obtained through centrifugation (8000 × g, 10 min, 4°C), and then, the supernatants were collected, lyophilized, sealed in plastic bags, and stored at 4°C until further analysis. The ACE and pancreatic lipase inhibitory activities of GDS and GID were measured at a concentration of 1 mg/mL, and the results were expressed as activity (%) relative to that without any treatment (control group, 100%). All determinations were made in triplicate.

[5] = biological target: T1, pancreatic lipase; test: In vitro simulated gastrointestinal digestion, then pancreatic lipase inhibition; assay type: biochemical; conditions: 1 mg/mL, read-out: inhibition rate against pancreatic lipase
Experimental: (§5) According to the method of Magdalena mendoza-s á nchez ([1]). In the blank group, 100 μL of 0.1 M sodium phosphate buffer (pH 7.2), 50 μL pNPB (5 mM), and 50 μL pancreatic lipase (0.2 U/mL) were added to a 96-well plate. In the blank control group, 150 μL sodium phosphate buffer and 50 μL pNPB were added to the 96-well plate. In the sample group, 50 μL sodium phosphate buffer, 50 μL pNPB, 50 μL sample (1 mg/mL), and 50 μL pancreatic lipase were added to the 96-well plate. For the sample blank group, 100 μL sodium phosphate buffer, 50 μL pNPB, and 50 μL sample were added to the 96-well plate. At 37°C, the absorbance values A, B, C, and D were measured at 405 nm after 30 min of reaction. The absorbance values were incorporated into the following formula to calculate the inhibition rate of polypeptide against pancreatic lipase activity:
as §4

[6] = biological target: T1, pancreatic lipase; test: Pancreatic lipase inhibitory activity of peptides (pNPB substrate, absorbance 405 nm); assay type: biochemical
Experimental: as §1, §5
(2) Pancreaticlipaseinhibitionrate (%)=(1-C-D/A-B)×100
Where A, B, C, and D are absorbance values of the blank, blank control, sample, and sample blank groups, respectively.

[7] = biological target: T1, pancreatic lipase; test: Inhibitory kinetic analysis of pancreatic lipase (Lineweaver-Burk); assay type: biochemical; conditions: sample 1 mg/mL, pNPB 1-5 mM; read-out: inhibitory binding constant (Ki), pancreatic lipase
Experimental: as §3

VSTDVNIE [cocoa peptide]
inhibitory effect on pancreatic lipase ([1]; cocoa peptides): had inhibitory effect

Leu-Pro
pancreatic lipase inhibitory activity ([1]; peptide of bovine and camel casein hydrolysates): exhibits pancreatic lipase inhibitory activity

CC(C)[C@H](N)C(=O)N[C@@H](Cc1ccc(O)cc1)C(=O)NCC(=O)N[C@@H](Cc1ccccc1)C(=O)O [VYGF] (H-VYGF-OH)
IC50 [2]: 2060 µM
Ki [3]: 933 µM
inhibition at 1000 µg/mL ([4]; after GI digestion): 49.1%
inhibition at 1000 µg/mL ([4]; after gastric digestion): 50.9%
inhibition at 1000 µg/mL ([4]; without GI digestion): 54.8%

GLLGY [GLLGY]
IC50 [2]: 1920 µM
Ki [3]: 1570 µM
inhibition at 1000 µg/mL ([4]; after GI digestion): 51.3%
inhibition at 1000 µg/mL ([4]; after gastric digestion): 52.6%
inhibition at 1000 µg/mL ([4]; without GI digestion): 55.8%

N[C@@H](Cc1c[nH]cn1)C(=O)N[C@@H](Cc1c[nH]c2ccccc12)C(=O)N1CCC[C@H]1C(=O)O [HWP] (H-His-Trp-Pro-OH)
inhibition at 1000 µg/mL ([5]; after GI digestion): 18.4%
inhibition at 1000 µg/mL ([5]; after gastric digestion): 19.9%
inhibition at 1000 µg/mL ([5]; without GI digestion): 21.5%
inhibition at 1000 µg/mL ([6]; at 1 mg/mL, read-out: pancreatic lipase inhibition rate): 20%
IC50 ([6]; gradient test of concentration, Figure 1C): 9010 µM
Ki [7]: 2580 µM
IC50 [2]: 2280 µM
Ki [3]: 1340 µM
inhibition at 1000 µg/mL ([4]; after GI digestion): 53.6%
inhibition at 1000 µg/mL ([4]; after gastric digestion): 54.4%
inhibition at 1000 µg/mL ([4]; without GI digestion): 57%

O=c1cc(-c2ccc(O)cc2)oc2cc(O)cc(O)c12 [apigenin]
IC50 [1]: 450 ± 30 µM
type of pancreatic lipase inhibition [1]: competitively inhibited
